Source: the supplement of paper PMC10307832

Tests used:
Assay in all cases: relative viability (nuclei count vs DMSO), 5 days (fraction); higher = more cells survive
[1] = compound: C1=CC2=C(C=C(C(=C2N=C1)O)N=NC3=CC4=C(C=C3)C=C(C=C4)S(=O)(=O)O)S(=O)(=O)O + CCNC(=O)c1noc(-c2cc(C(C)C)c(O)cc2O)c1-c1ccc(CN2CCOCC2)cc1 [Luminespib] (partner 0.01 µM)
Summary of the method: (§1)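 One day after seeding in 1536-well plates, lung cancer cell lines were dosed by pin tool. Dosing was either single-drug or a fixed anchor-drug dose plus five library-drug doses (not always all listed) in √10 steps. After 5 days, nuclei were stained in one fix-and-stain step and counted on 4× images, and relative viability is the nuclei count of treated wells over that of vehicle wells, given as the median of duplicate plates.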

[2] = compound: C1=CC2=C(C=C(C(=C2N=C1)O)N=NC3=CC4=C(C=C3)C=C(C=C4)S(=O)(=O)O)S(=O)(=O)O + C[C@@H](Oc1cc(-c2cnn(C3CCNCC3)c2)cnc1N)c1c(Cl)ccc(F)c1Cl [Crizotinib] (partner 1 µM)
Summary of the method: as §1

[3] = compound: C1=CC2=C(C=C(C(=C2N=C1)O)N=NC3=CC4=C(C=C3)C=C(C=C4)S(=O)(=O)O)S(=O)(=O)O + Nc1nc2[nH]cc(CCc3ccc(C(=O)N[C@@H](CCC(=O)O)C(=O)O)cc3)c2c(=O)[nH]1 [Pemetrexed] (partner 0.2 µM)
Summary of the method: as §1

AT-7519 + OSI-027 = compound: O=C(NC1CCNCC1)c1n[nH]cc1NC(=O)c1c(Cl)cccc1Cl [AT-7519] + COc1cccc2cc(-c3nc([C@H]4CC[C@H](C(=O)O)CC4)n4ncnc(N)c34)[nH]c12 [OSI-027] (partner 0.5 µM)
Summary of the method: as §1

Row | Cell Line | relative viability ([1]; first compound 0.08 µM) | relative viability ([1]; first compound 0.253 µM) | relative viability ([1]; first compound 0.8 µM) | relative viability ([1]; first compound 2.53 µM) | relative viability ([1]; first compound 8 µM) | relative viability ([2]; first compound 0.08 µM) | relative viability ([2]; first compound 0.253 µM) | relative viability ([2]; first compound 2.53 µM) | relative viability ([2]; first compound 8 µM) | relative viability ([3]; first compound 0.08 µM) | relative viability ([3]; first compound 0.253 µM) | relative viability ([3]; first compound 0.8 µM) | relative viability ([3]; first compound 2.53 µM) | relative viability ([3]; first compound 8 µM) | relative viability (AT-7519 + OSI-027; first compound 0.01 µM) | relative viability (AT-7519 + OSI-027; first compound 0.03162 µM) | relative viability (AT-7519 + OSI-027; first compound 0.3162 µM) | relative viability (AT-7519 + OSI-027; first compound 1 µM) | relative viability ([2]; first compound 0.8 µM)
1 | NCI-H661 | 0.932 | 0.887 | 0.847 | 0.945 | 0.849 | 1.03 | 0.905 | 1.01 | 0.971 | 0.891 | 0.925 | 0.893 | 0.945 | 0.901 | 0.671 | 0.694 | 0.564 | 0.333 | 
2 | NCI-H838 | 0.294 | 0.281 | 0.267 | 0.24 | 0.279 | 0.992 | 0.734 | 0.943 | 0.811 | 0.264 | 0.251 | 0.235 | 0.234 | 0.246 | 0.345 | 0.39 | 0.276 | 0.127 | 0.848
3 | NCI-H1355 | 0.737 | 0.735 | 0.646 | 0.68 | 0.775 | 1.16 | 1.04 | 1.17 | 1.14 | 1.13 | 1.05 | 1.02 | 1.1 | 0.872 | 0.407 | 0.471 | 0.374 | 0.374 | 0.986
4 | NCI-H1437 | 1.21 | 1.11 | 1.13 | 1.16 | 0.571 | 1.07 | 0.894 | 0.909 | 0.919 | 0.299 | 0.326 | 0.334 | 0.265 | 0.308 | 0.755 | 0.938 | 0.824 | 0.645 | 0.897
5 | NCI-H1563 | 0.514 | 0.522 | 0.489 | 0.498 | 0.404 | 0.875 | 0.883 | 0.851 | 0.873 | 0.776 | 0.744 | 0.726 | 0.79 | 0.376 | 0.737 | 0.794 | 0.722 | 0.728 | 0.886
6 | NCI-H1650 | 0.197 | 0.177 | 0.194 | 0.191 | 0.184 | 1.05 | 0.894 | 1.15 | 1.01 | 0.433 | 0.346 | 0.368 | 0.389 | 0.4 | 0.779 | 0.598 | 0.46 | 0.181 | 0.962
7 | NCI-H1651 | 1.25 | 0.869 | 0.877 | 0.86 | 0.836 | 0.968 | 0.834 | 0.874 | 0.729 | 0.678 | 0.534 | 0.601 | 0.609 | 0.54 | 0.764 | 0.734 | 0.598 | 0.59 | 0.837
8 | NCI-H1666 | 1.09 | 0.912 | 1.07 | 0.978 | 0.596 | 1.22 | 0.949 | 1.06 | 0.946 | 0.824 | 0.85 | 0.827 | 0.891 | 0.892 | 0.825 | 0.82 | 0.838 | 0.652 | 0.95
